Data taken from patent publication EP0340198B1, “Immunoassay for the detection of alpha-haloacetamides” (priority 1988, dated 1989).

Tests used:
alachlor antibodies = assay: inhibition ELISA for alachlor (cross-reactivity studies); type: binding, rabbit; details: for reaction (cross-reactivity) with the antibodies, in words: relative to alachlor
Protocol: Immunoassays. A known "checkerboard assay" was initially conducted with each serum sample after the first boost to detect the production of antibodies against alachlor. […] The next 7 rows received the subsequent dilutions of the screening antigen. The plate was covered with Parafilm and stored overnight at 4°C. The next morning, the unbound screening antigen was removed from the wells by washing three times with phosphate buffered saline solution (0.01 M phosphate buffer of pH 7.4, 0.15 M NaCl; PBS). The remaining active sites in the wells were blocked with PBS-8% non-fat dry milk solution, (NFDM, 0.3 mL) for 1 hr at 22°C. Serum, which had been stored at -20°C, was freshly thawed and serially diluted (one to two) from 1,000 to 64,000-fold using PBS-T (PBS containing 0.02% Tween 20). Starting with the most concentrated solution, 0.1 mL of the serum solution was pipetted into all 8 wells of column 1; the remaining columns received the subsequent dilutions of the serum solution. The plate was covered and incubated at 22°C for 1.5 hrs. Following triplicate washes of the wells with PBS-T, each of the wells received 0.1 mL of goat anti-rabbit gamma-globulin conjugated to horseradish peroxidase (GAR-HRP) freshly thawed and diluted 4,000 fold with PBS-1% NFDM. After a final wash cycle (4 times) with PBS-T, freshly prepared O-phenylene diamine (PDA) substrate solution (0.2 mL, 0.04 mg/mL PDA and 0.01% H₂O₂ in 0.05 M citric acid and 0.15 M sodium dibasic phosphate, pH 5.0) was dispensed into each of the wells and incubated in the dark at 22°C for 30-60 min. Sulfuric acid (4 N, 50 µL) was added to each of the wells to stop the reaction, and the final absorbances of the wells (490 nm) were recorded.
The inhibition ELISA required one additional step in the assay procedure described above. Equal volumes of the diluted serum and aqueous alachlor standard or unknown sample were mixed and preincubated at 22°C for 1 hr. This mixture (0.1 mL/well) was then analyzed in 6 replicate wells on the plate. The presence of free alachlor inhibited the binding of the antibody to the alachlor-BSA conjugate, resulting in an inhibition of the development of absorbance at 490 nm. The amount of free alachlor was indirectly proportional to the intensity of color developed. Levels of alachlor in unknown water samples were calculated based on the alachlor standards on the same plate. Alachlor standards (0, 0.2, 0.5, 1.0, 3.0, 5.0, and 8.0 ppb in deionized water) were stored at -20°C in 1-mL portions, and were freshly thawed for each assay.
Data Calculations. The lay-out of a typical 96-well microtiter plate is 8 rows of 12 columns in an inhibition ELISA assay for alachlor. The first 6 wells in the first column of wells were not coated with the screening antigen and served as the background wells. The first 6 wells in the remaining 7 columns of wells were reserved for the seven alachlor standards (0 to 8 ppb) listed above. The remaining wells in all 8 rows were used for the samples. The uncorrected absorbances of the wells determined by the Bio-tek reader were used in the following calculations. The median was calculated for the 6 replicate background wells and was then subtracted from the medians of the standards and samples. All the median values were divided by the median of the standard without alachlor (0 ppb) to generate percentages of absorbances. The percent absorbance of the alachlor standards was then plotted on the Y axis against the logarithm (base 10) of the actual concentrations of alachlor on the X axis. A hyperbolic curve was drawn through the standards, and the resulting standard curve was used to calculate the concentrations of alachlor in the unknown samples.
The calculations described above were usually carried out using a computer program.

[1] = tested on: antibodies toward butachlor; assay: inhibition ELISA for butachlor; type: binding, rabbits; details: for inhibition of the ELISA assay for butachlor: standard solutions at 10 and 50 ppb in DI water
Source text: (§1) The generation of antibodies toward butachlor (2-chloro-2′,6′-diethyl-N-(butoxymethyl)acetanilide), amidochlor (2-chloro-2′,6′-diethyl-N-acetamidomethyl acetanilide), and metolachlor (2-chloro-2′-ethyl-6′-methyl-N-(2-methoxy-1-methylethyl)acetanilide) were accomplished following identical procedures as those described for alachlor. The individual 14C-labeled chloroacetanilide was covalently bound to HSA (human serum albumin) with AHT, and to sheep IgG with AMSA.
(§2) The hapten-IgG conjugates were used to immunize rabbits. The corresponding hapten-BSA conjugates were then utilized in checkerboard assays to determine the presence of desired antibodies in the antisera. An inhibition ELISA for butachlor was set up with antiserum, butachlor-HSA screening antigen, and butachlor. Similar assays were also set up for amidochlor and metolachlor.
(§3) The sensitivity of the inhibition ELISA for butachlor, amidochlor, and metolachlor was tested with respective standards prepared in DI water. Using the best antiserum, the butachlor ELISA produced an IC50 of 8 ppb.
(§4) The specificity of the ELISA for butachlor, amidochlor, and metolachlor were tested using standard solutions of alachlor, acetochlor, butachlor, amidochlor, metolachlor, and propachlor at concentrations of 10 and 50 ppb in DI water. At these concentrations, the ELISA assay for butachlor, amidochlor, and metolachlor was each inhibited only by the respective free hapten, and not by any of the other chloroacetanilides.

[2] = tested on: antibodies toward metolachlor; assay: inhibition ELISA for metolachlor; type: binding, rabbits; details: for inhibition of the ELISA assay for metolachlor: standard solutions at 10 and 50 ppb in DI water
Source text: as §1, §2, §3, §4

[3] = tested on: antibodies toward amidochlor; assay: inhibition ELISA for amidochlor; type: binding, rabbits; details: for inhibition of the ELISA assay for amidochlor: standard solutions at 10 and 50 ppb in DI water
Source text: as §1, §2, §3, §4

[4] = tested on: antibodies isolated from the serum of the first bleed of the rabbit; assay: affinity column binding of 14C-labeled analytes from aqueous solution; details: 14C-labeled analogs, test of non-specific binding
Protocol: Affinity Chromatography. The preparation of affinity columns using rabbit antisera was as follows: The rabbit IgG's were purified by passing 5 mL of the antiserum through a column containing 5 mL of the swelled protein A-agarose gel. By monitoring the absorbance at 280 nm in the column effluent, the non-bound proteins were removed by washing with PBS, and the IgG's were then eluted with acetic acid at pH 2.3 (0.58% acetic acid and 0.15 M NaCl). The fractions containing the IgG's were combined and neutralized; based on the UV absorbance at 280 nm (absorbance/1.4 = mg/mL protein), approximately 33 mg of IgG were isolated from 5 mL of serum, which was then lyophilized and stored at -20°C. The reusable protein A-agarose column was stored in PBS containing 0.02% sodium azide at 4°C.
The protein A-purified IgG was immobilized onto Affigel-10 affinity support. Affigel-10 (5 mL) was washed 3 times with isopropyl alcohol and 3 times with cold distilled water in a Buchner funnel. The gel was then added to a solution of IgG (3 mL in 0.1 M HEPES buffer, pH 7.5) at 4°C. Following 4 hrs of stirring, the gel was precipitated by gentle centrifugation and washed with HEPES buffer (3 x 3 mL). The remaining active sites on the gel were blocked by resuspending the gel in water (2 mL) and adding ethanolamine HCl (0.5 mL, 1M), and stirring the mixture at 22°C for 1 hr. The affinity column was useful in adsorbing alachlor and other analytes from aqueous solutions. After binding the alachlor, the column was washed with water (2 mL/min) to remove unbound material and alachlor was eluted with 75% aqueous methanol.
Using the antibodies isolated from the serum of the first bleed of the rabbit, an affinity column for alachlor was constructed to study its utility as an isolation and purification tool. The IgG's in the serum of the rabbit immunized with the alachlor-IgG conjugate were purified with a protein A-agarose column. The purified IgG was then immobilized onto the Affigel-10 support. Alachlor (¹⁴C-labeled) in aqueous solution was passed through the column with a flow rate of 2 mL/min; the column was washed with water and eluted with 75% aqueous methanol. The radioactivity in the wash and eluent were determined by liquid scintillation counting. […] The capacity of the column was less than 1 µg, and once this level was exceeded, alachlor no longer bound to the column. The recovery of applied radioactivity generally ranged from 80% to 100%. In a second experiment, alachlor (0.5 µg) was dissolved into increasing volumes of water ranging from 1 mL to 100 mL.
To eliminate the possibility of non-specific binding of alachlor to the affinity column, other ¹⁴C-labeled analogs were also studied. These included acetanilide herbicides butachlor, acetochlor, metolachlor, and propachlor and the previously mentioned alachlor metabolites mercapturate and its methyl ester. The affinity column bound butachlor and acetochlor, but not metolachlor, propachlor, or mercapturate.

[5] = IC50 of alachlor divided by IC50 of analog x 100, bleed not stated

Compound | reaction (cross-reactivity) with the antibodies, in words (alachlor antibodies) | percent cross-reactivity (alachlor antibodies; [5]) | further results
CCc1cccc(CC)c1N(COC)C(=O)CS(=O)(=O)CCO | no cross-reactivity |  | 
CCc1cccc(CC)c1N(COC)C(=O)CSC | strong interaction | 188% | 
CCc1cccc(CC)c1NC(=O)CSC | no cross-reactivity |  | 
CCc1cccc(CC)c1N [2,6-diethylaniline] | no reaction |  | 
CCc1cccc(CC)c1N(COC)C(=O)C[S+]([O-])CC(NC(C)=O)C(=O)O (stereo not shown) [S=O derivative] | significantly reduced or eliminated |  | 
CCc1cccc(CC)c1N(CNC(C)=O)C(=O)CCl [amidochlor, 2-chloro-2′,6′-diethyl-N-acetamidomethyl acetanilide] | little to no interaction |  | inhibition of the ELISA assay for butachlor [1]: not; inhibition of the ELISA assay for metolachlor [2]: not; IC50 ([3]; amidochlor-HSA as the screening antigen, standards in DI water): 2 ppb; IC50 ([3]; butachlor-HSA substituted for amidochlor-HSA as the screening antigen): 0.2 ppb; inhibition of the ELISA assay for amidochlor [3]: inhibited
CCCCOCN(C(=O)CCl)c1c(CC)cccc1CC [butachlor, 2-chloro-2′,6′-diethyl-N-(butoxymethyl)acetanilide] | little to no interaction |  | binding by the affinity column [4]: bound; IC50 ([1]; best antiserum, butachlor-HSA screening antigen, standards in DI water): 8 ppb; inhibition of the ELISA assay for butachlor [1]: inhibited; inhibition of the ELISA assay for metolachlor [2]: not; inhibition of the ELISA assay for amidochlor [3]: not
CCc1cccc(CC)c1N(COC)C(=O)CSCC(NC(=O)CCC(N)C(=O)O)C(=O)NCC(=O)O (stereo not shown) [glutathione conjugate of alachlor] |  | 27.5% | 
CCc1cccc(CC)c1N(COC)C(=O)CSCC(NC(C)=O)C(=O)O (stereo not shown) [mercapturate analog] |  |  | percent cross-reactivity (alachlor antibodies; bleed four): 18%; percent cross-reactivity (alachlor antibodies; bleed seven): 65%; binding by the affinity column [4]: not
CCc1cccc(CC)c1N(COC)C(=O)CSCC(NC(C)=O)C(=O)OC (stereo not shown) [methyl ester of the mercapturate] |  | 89.7% | binding by the affinity column [4]: Binding was observed
CCc1cccc(C)c1N(C(=O)CCl)C(C)COC (stereo not shown) [metolachlor, 2-chloro-2′-ethyl-6′-methyl-N-(2-methoxy-1-methylethyl)acetanilide] | little to no interaction |  | binding by the affinity column [4]: not; inhibition of the ELISA assay for butachlor [1]: not; IC50 ([2]; best antiserum, standards in DI water): 8 ppb; inhibition of the ELISA assay for metolachlor [2]: inhibited; inhibition of the ELISA assay for amidochlor [3]: not
CCc1cccc(CC)c1N(COC)C(C)=O [norchloro-alachlor] |  | 22% | 
CCc1cccc(CC)c1NC(=O)CSCC(NC(C)=O)C(=O)O (stereo not shown) [secondary amide mercapturate] | significantly reduced or eliminated |  | 
CCc1cccc(CC)c1N(COC)C(=O)CS(C)(=O)=O [sulfone analog] |  | 9% | 
CCc1cccc(CC)c1N(COC)C(=O)CS(=O)(=O)O [sulfonic acid] | little reaction | less than 2.5% | 
CCc1cccc(CC)c1N(COC)C(=O)C[S+](C)[O-] (stereo not shown) [sulfoxide analog] |  | 15% | 
CCc1cccc(CC)c1N(COC)C(=O)CSCC(=O)O [thioacetic acid conjugate of alachlor] |  | 57.0% | 
CCc1cccc(CC)c1NC(=O)CCl [α-chloro-2′,6′-diethylacetanilide] | no reaction |  | 
oxanilic acid | little reaction | less than 2.5% | 
